Laboratory results reported in doi:10.1101/2021.10.07.463234v2 (biorxiv, 2021).
Structures can show the parent of a compound that is named as a salt.

Target: SARS-CoV-2 Mac1 (Severe acute respiratory syndrome coronavirus 2, UniProt P0DTD1)
Test: biochemical
Conditions: for inhibition at 100 µM: read-out: %inhibition; for %inhibition: 100 µM, inhibitor

Row | SMILES | inhibition at 100 µM [%] | %inhibition [%]
1 | CCN[C@H]1CN(CCCOC)S(=O)(=O)c2sc(S(N)(=O)=O)cc21 [Brinzolamide] | 0 | 
2 | CCC[C@@H]1CC(=O)N([C@@H](CC)C(N)=O)C1 [Brivaracetam] | 24.6 | 
3 | O=c1[nH]c(=O)n([C@H]2C[C@H](O)[C@@H](CO)O2)cc1/C=C/Br [Brivudine] | 17.8 | 
4 | Nc1c(CC(=O)O)cccc1C(=O)c1ccc(Br)cc1 [Bromfenac Sodium] | 8.6 | 
5 | CN(Cc1cc(Br)cc(Br)c1N)C1CCCCC1 [Bromhexine HCl] | 0 | 
6 | CC(C)C(Br)C(=O)NC(N)=O (centres unmarked) [Bromisoval] | 0 | 
7 | CN(C)CCC(c1ccc(Br)cc1)c1ccccn1 (centres unmarked) [Brompheniramine hydrogen maleate] | 9.47 | 
8 | O=[N+]([O-])C(Br)(CO)CO [Bronopol] | 0 | 
9 | Oc1c(Br)cc(Br)c2cccnc12 [Broxyquinoline] | 0 | 
10 | COc1cc2c(cc1OC)[C@@]13CCN4CC5=CCO[C@H]6CC(=O)N2[C@H]1[C@H]6[C@H]5C[C@H]43 [Brucine sulfate salt hydrate] | 0 | 
11 | CCOc1ccc(NC(=O)CC(C)O)cc1 (centres unmarked) [Bucetin] | 2.67 | 
12 | CCCC1O[C@@H]2C[C@H]3[C@@H]4CCC5=CC(=O)C=C[C@]5(C)[C@H]4[C@@H](O)C[C@]3(C)[C@]2(C(=O)CO)O1 (some centres unmarked) [Budesonide] | 12.3 | 
13 | CCCCOc1ccc(CC(=O)NO)cc1 [Bufexamac] | 14.1 | 
14 | COc1cc(OC)c(C(=O)CCCN2CCCC2)c(OC)c1 [Buflomedil HCl] | 0 | 
15 | CCCCNc1cc(C(=O)O)cc(S(N)(=O)=O)c1Oc1ccccc1 [Bumetanide] | 25.7 | 
16 | CCCCN1CCCCC1C(=O)Nc1c(C)cccc1C (centres unmarked) [Bupivacaine HCl] | 0 | 
17 | O=C1CC2(CCCC2)CC(=O)N1CCCCN1CCN(c2ncccn2)CC1 [Buspirone HCl] | 7.05 | 
18 | CS(=O)(=O)OCCCCOS(C)(=O)=O [Busulfan] | 0 | 
19 | CCCCOC(=O)c1ccc(N)cc1 [Butamben] | 2.1 | 
20 | CN(Cc1ccc(C(C)(C)C)cc1)Cc1cccc2ccccc12 [Butenafine HCl] | 0 | 
21 | Clc1ccc(CCC(Cn2ccnc2)Sc2c(Cl)cccc2Cl)cc1 (centres unmarked) [Butoconazole nitrate] |  | 4.358
22 | Clc1ccc(CCC(Cn2ccnc2)Sc2c(Cl)cccc2Cl)cc1 (centres unmarked) [Butoconazole] |  | 13.63
23 | CCCCOC(=O)c1ccc(O)cc1 [Butylparaben] | 0 | 
24 | CCCC[N+]1(C)[C@@H]2C[C@@H](OC(=O)[C@H](CO)c3ccccc3)C[C@H]1[C@@H]1O[C@@H]12 (some centres unmarked) [Butylscopolamine Bromide] | 0 | 
25 | NC(=O)c1cc(N2CC2)c([N+](=O)[O-])cc1[N+](=O)[O-] [CB1954] | 5.18 | 

Row | SMILES | inhibition at 100 µM [%] | %inhibition [%]
26 | C#Cc1cccc(Nc2ncnc3cc(OC)c(OCCCCCCC(=O)NO)cc23)c1 [CUDC-101] | 6.86 | 
27 | CO[C@H]1C(=O)[C@]2(C)[C@@H](OC)C[C@H]3OC[C@@]3(OC(C)=O)[C@H]2[C@H](OC(=O)c2ccccc2)[C@]2(O)C[C@H](OC(=O)[C@H](O)[C@@H](NC(=O)OC(C)(C)C)c3ccccc3)C(C)=C1C2(C)C [Cabazitaxel] | 25.1 | 
28 | COc1cc2nccc(Oc3ccc(NC(=O)C4(C(=O)Nc5ccc(F)cc5)CC4)cc3)c2cc1OC [Cabozantinib (XL184, BMS-907351)] |  | 25.14
29 | COc1cc2nccc(Oc3ccc(NC(=O)C4(C(=O)Nc5ccc(F)cc5)CC4)cc3)c2cc1OC [Cabozantinib malate (XL184)] |  | 0
30 | C=C1CC[C@H](O)C/C1=C/C=C1\CCC[C@]2(C)[C@@H]([C@H](C)CCCC(C)(C)O)CC[C@@H]12 [Calcifediol] | 0 | 
31 | C=C1/C(=C\C=C2/CCC[C@]3(C)[C@@H]([C@H](C)/C=C/[C@@H](O)C4CC4)CC[C@@H]23)C[C@@H](O)C[C@@H]1O [Calcipotriene] | 0 | 
32 | CC(C)(CO)[C@@H](O)C(=O)NCCC(=O)O [Calcium D-Panthotenate] | 14.2 | 
33 | O=C(O)C(O)[C@H](O)[C@@H](O)[C@H](O)[C@H](O)CO (some centres unmarked) [Calcium Gluceptate] | 0 | 
34 | Nc1nc(=O)c2c([nH]1)NCC(CNc1ccc(C(=O)N[C@@H](CCC(=O)O)C(=O)O)cc1)N2C=O (some centres unmarked) [Calcium folinate] | 0 | 
35 | O=C(O)[C@H](O)[C@@H](O)[C@H](O)[C@H](O)CO [Calcium gluconate] | 0 | 
36 | CN(C)C(=O)COC(=O)Cc1ccc(OC(=O)c2ccc(NC(=N)N)cc2)cc1 [Camostat Mesilate] | 42.9 | 
37 | Cc1ccc([C@@H]2O[C@H](CO)[C@@H](O)[C@H](O)[C@H]2O)cc1Cc1ccc(-c2ccc(F)cc2)s1 [Canagliflozin] | 0 | 
38 | CCOc1nc2cccc(C(=O)OC(C)OC(=O)OC3CCCCC3)c2n1Cc1ccc(-c2ccccc2-c2nn[nH]n2)cc1 (centres unmarked) [Candesartan Cilexetil] | 0 | 
39 | CCOc1nc2cccc(C(=O)O)c2n1Cc1ccc(-c2ccccc2-c2nnn[nH]2)cc1 [Candesartan] | 0 | 
40 | CSCCNc1nc(SCCC(F)(F)F)nc2c1ncn2[C@@H]1O[C@H](COP(=O)(O)OP(=O)(O)C(Cl)(Cl)P(=O)(O)O)[C@@H](O)[C@H]1O [Cangrelor Tetrasodium] | 0 | 
41 | CCCCCOC(=O)Nc1nc(=O)n([C@@H]2O[C@H](C)[C@@H](O)[C@H]2O)cc1F [Capecitabine] | 6.29 | 
42 | COc1cc(CNC(=O)CCCC/C=C/C(C)C)ccc1O [Capsaicin(Vanilloid)] |  | 5.806
43 | C[C@H](CS)C(=O)N1CCC[C@H]1C(=O)O [Captopril] | 0 | 
44 | C[N+](C)(C)CCOC(N)=O [Carbachol] | 3.56 | 
45 | COC(=O)N/N=C/c1c[n+]([O-])c2ccccc2[n+]1[O-] [Carbadox] | 6.86 | 
46 | NC(=O)N1c2ccccc2C=Cc2ccccc21 [Carbamazepine] | 0 | 
47 | CC(=O)Oc1ccccc1C(=O)O [Carbasalate Calcium] |  | 5.528
48 | CN1c2cc(O)c(N=NC(N)=O)cc2CC1S(=O)(=O)O (centres unmarked) [Carbazochrome sodium sulfonate (AC-17)] | 15.7 | 
49 | CN1CC(O)C2=C/C(=N/NC(N)=O)C(=O)C=C21 (centres unmarked) [Carbazochrome] | 10.9 | 
50 | CC1(C)S[C@@H]2[C@H](NC(=O)C(C(=O)O)c3ccccc3)C(=O)N2[C@H]1C(=O)O (some centres unmarked) [Carbenicillin disodium] | 2.9 | 

Row | SMILES | inhibition at 100 µM [%] | %inhibition [%]
51 | CC1(C)[C@@H](OC(=O)CCC(=O)O)CC[C@]2(C)[C@H]3C(=O)C=C4[C@@H]5C[C@@](C)(C(=O)O)CC[C@]5(C)CC[C@@]4(C)[C@]3(C)CC[C@@H]12 [Carbenoxolone Sodium] | 4.8 | 
52 | C[C@@](Cc1ccc(O)c(O)c1)(NN)C(=O)O [Carbidopa] | 24.2 | 
53 | CCOC(=O)n1ccn(C)c1=S [Carbimazole] | 0 | 
54 | CN(C)CCOC(c1ccc(Cl)cc1)c1ccccn1 (centres unmarked) [CarbinoxaMine Maleate] | 0 | 
55 | CCCCC[C@](C)(O)/C=C/[C@@H]1[C@@H](C/C=C\CCCC(=O)O)[C@@H](O)C[C@H]1O [Carboprost] | 17.6 | 
56 | CCCCCCNC(=O)n1cc(F)c(=O)[nH]c1=O [Carmofur] |  | 16.37
57 | CC(C(=O)O)c1ccc2c(c1)[nH]c1ccc(Cl)cc12 (centres unmarked) [Carprofen] | 0 | 
58 | O=c1[nH]c(=O)c2ccccc2o1 [Carsalam] | 0 | 
59 | CC(C)(C)NCC(O)COc1cccc2c1CCC(=O)N2 (centres unmarked) [Carteolol HCl] | 3.36 | 
60 | COc1ccccc1OCCNCC(O)COc1cccc2[nH]c3ccccc3c12 (centres unmarked) [Carvedilol Phosphate] |  | 0
61 | COc1ccccc1OCCNCC(O)COc1cccc2[nH]c3ccccc3c12 (centres unmarked) [Carvedilol] |  | 23.79
62 | NS(=O)(=O)c1ccc(C(=O)O)cc1 [Carzenide] | 0 | 
63 | CC[C@H](C)C[C@H](C)CCCCCCCCC(=O)N[C@H]1C[C@@H](O)[C@@H](NCCN)NC(=O)[C@@H]2[C@@H](O)CCN2C(=O)[C@H]([C@H](O)CCN)NC(=O)[C@H]([C@H](O)[C@@H](O)c2ccc(O)cc2)NC(=O)[C@@H]2C[C@@H](O)CN2C(=O)[C@H]([C@@H](C)O)NC1=O [Caspofungin Acetate] | 0 | 
64 | COc1cc2c(Oc3ccc4[nH]c(C)cc4c3F)ncnc2cc1OCCCN1CCCC1 [Cediranib (AZD2171)] | 51.1 | 
65 | N[C@@H](C(=O)N[C@@H]1C(=O)N2C(C(=O)O)=C(Cl)CS[C@H]12)c1ccccc1 [Cefaclor] | 0 | 
66 | CC1=C(C(=O)O)N2C(=O)[C@@H](NC(=O)[C@H](N)c3ccc(O)cc3)[C@H]2SC1 [Cefadroxil hydrate] | 0 | 
67 | Cn1nnnc1SCC1=C(C(=O)O)N2C(=O)[C@@H](NC(=O)[C@H](OC=O)c3ccccc3)[C@H]2SC1 [Cefamandole nafate] | 0 | 
68 | Cc1nnc(SCC2=C(C(=O)O)N3C(=O)[C@@H](NC(=O)Cn4cnnn4)[C@H]3SC2)s1 [Cefazolin Sodium] | 2.52 | 
69 | CC/C=C(\C(=O)N[C@@H]1C(=O)N2C(C(=O)OCOC(=O)C(C)(C)C)=C(COC(N)=O)CS[C@H]12)c1csc(N)n1 [Cefcapene Pivoxil Hydrochloride] | 0.547 | 
70 | CO/N=C(\C(=O)N[C@@H]1C(=O)N2C(C(=O)OCOC(=O)C(C)(C)C)=C(/C=C\c3scnc3C)CS[C@H]12)c1csc(N)n1 [Cefditoren Pivoxil] | 0 | 
71 | CO/N=C(\C(=O)N[C@@H]1C(=O)N2C(C(=O)O)=C(C[N+]3(C)CCCC3)CS[C@H]12)c1csc(N)n1 [Cefepime Dihydrochloride Monohydrate] | 0 | 
72 | C=CC1=C(C(=O)O)N2C(=O)[C@@H](NC(=O)/C(=N\OCC(=O)O)c3csc(N)n3)[C@H]2SC1 [Cefixime] | 0 | 
73 | CO/N=C(\C(=O)N[C@@H]1C(=O)N2C(C(=O)O)=C(CSc3nnnn3C)CS[C@H]12)c1csc(N)n1 [Cefmenoxime hydrochloride] | 0 | 
74 | CO[C@@]1(NC(=O)CSCC#N)C(=O)N2C(C(=O)O)=C(CSc3nnnn3C)CS[C@@H]21 [Cefmetazole sodium] | 8.58 | 
